Measurements reported in PubChem BioAssay (NCI).
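96-well plates; 48 h exposure; 5 concentrations. Endpoints by linear interpolation between flanking doses. Not reached: highest tested concentration assigned. At the TGI there is no net growth.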

Legend:
Experiment in all cases: NCI anticancer screen, dose series, 48 h
[1] = tested on: 786-0 renal
[2] = tested on: A498 renal
[3] = tested on: A549 NSCLC
[4] = tested on: ACHN renal
[5] = tested on: CCRF-CEM leukemia
[6] = tested on: COLO 205 colon
[7] = tested on: DU-145 prostate
[8] = tested on: EKVX NSCLC
[9] = tested on: HCT-116 colon
[10] = tested on: HCT-15 colon
[11] = tested on: HOP-62 NSCLC
[12] = tested on: HOP-92 NSCLC
[13] = tested on: HS 578T breast
[14] = tested on: HT29 colon
[15] = tested on: IGROV1 ovarian
[16] = tested on: K-562 leukemia
[17] = tested on: KM12 colon
[18] = tested on: LOX IMVI melanoma
[19] = tested on: M14 melanoma
[20] = tested on: MALME-3M melanoma
[21] = tested on: MCF7 breast
[22] = tested on: MDA-MB-231 breast
[23] = tested on: MDA-MB-435
[24] = tested on: MDA-N
[25] = tested on: MOLT-4 leukemia
[26] = tested on: NCI-H226 lung
[27] = tested on: NCI-H23 lung
[28] = tested on: NCI/ADR-RES ovarian
[29] = tested on: OVCAR-3 ovarian
[30] = tested on: OVCAR-5 ovarian
[31] = tested on: OVCAR-8 ovarian
[32] = tested on: PC-3 prostate
[33] = tested on: RPMI-8226 leukemia
[34] = tested on: SF-268 CNS
[35] = tested on: SF-295 CNS
[36] = tested on: SK-MEL-2 melanoma
[37] = tested on: SK-MEL-28 melanoma
[38] = tested on: SK-MEL-5 melanoma
[39] = tested on: SK-OV-3 ovarian
[40] = tested on: SN12C renal
[41] = tested on: SNB-75 CNS
[42] = tested on: SR leukemia
[43] = tested on: SW-620 colon
[44] = tested on: TK-10 renal
[45] = tested on: U251 CNS
[46] = tested on: UACC-62 melanoma
[47] = tested on: UO-31 renal
[48] = tested on: BT-549 breast
[49] = tested on: CAKI-1 renal
[50] = tested on: HCC-2998 colon
[51] = tested on: HL-60(TB) leukemia
[52] = tested on: NCI-H522 lung
[53] = tested on: OVCAR-4 ovarian
[54] = tested on: SF-539 CNS
[55] = tested on: SNB-19 CNS
[56] = tested on: UACC-257 melanoma
[57] = tested on: NCI-H460 lung
[58] = tested on: RXF 393 renal
[59] = tested on: T-47D breast

CSC1=N/C(=C\c2cccs2)C(=O)N1CN1CCCCC1
TGI [1]: > 100 µM | TGI [2]: > 100 µM | TGI [3]: > 100 µM | TGI [4]: > 100 µM | TGI [5]: > 100 µM | TGI [6]: > 100 µM | TGI [7]: > 100 µM | TGI [8]: > 100 µM | TGI [9]: > 100 µM | TGI [10]: > 100 µM | TGI [11]: > 100 µM | TGI [12]: 96.5 µM | TGI [13]: > 100 µM | TGI [14]: > 100 µM | TGI [15]: > 100 µM | TGI [16]: > 100 µM | TGI [17]: > 100 µM | TGI [18]: 75.6 µM | TGI [19]: > 100 µM | TGI [20]: > 100 µM | TGI [21]: > 100 µM | TGI [22]: > 100 µM | TGI [23]: > 100 µM | TGI [24]: > 100 µM | TGI [25]: > 100 µM | TGI [26]: > 100 µM | TGI [27]: > 100 µM | TGI [28]: > 100 µM | TGI [29]: > 100 µM | TGI [30]: > 100 µM | TGI [31]: > 100 µM | TGI [32]: > 100 µM | TGI [33]: 68.8 µM | TGI [34]: > 100 µM | TGI [35]: > 100 µM | TGI [36]: > 100 µM | TGI [37]: > 100 µM | TGI [38]: > 100 µM | TGI [39]: > 100 µM | TGI [40]: > 100 µM | TGI [41]: > 100 µM | TGI [42]: > 100 µM | TGI [43]: > 100 µM | TGI [44]: > 100 µM | TGI [45]: > 100 µM | TGI [46]: > 100 µM | TGI [47]: > 100 µM

O=C(Cc1ccccc1)N/N=C(/CCN1CCCC1)CC(c1ccccc1)c1c(O)c2ccccc2oc1=O (stereo unspecified)
TGI [1]: > 100 µM | TGI [2]: > 100 µM | TGI [3]: > 100 µM | TGI [4]: > 100 µM | TGI [48]: > 100 µM | TGI [49]: > 100 µM | TGI [5]: > 100 µM | TGI [6]: 57.5 µM | TGI [7]: > 100 µM | TGI [8]: > 100 µM | TGI [50]: > 100 µM | TGI [9]: > 100 µM | TGI [10]: > 100 µM | TGI [51]: > 100 µM | TGI [12]: > 100 µM | TGI [13]: > 100 µM | TGI [14]: > 100 µM | TGI [15]: > 100 µM | TGI [16]: > 100 µM | TGI [17]: > 100 µM | TGI [18]: 44.4 µM | TGI [19]: > 100 µM | TGI [20]: > 100 µM | TGI [21]: > 100 µM | TGI [22]: > 100 µM | TGI [23]: > 100 µM | TGI [24]: > 100 µM | TGI [25]: > 100 µM | TGI [26]: > 100 µM | TGI [27]: > 100 µM | TGI [52]: > 100 µM | TGI [28]: > 100 µM | TGI [29]: > 100 µM | TGI [53]: > 100 µM | TGI [30]: > 100 µM | TGI [31]: > 100 µM | TGI [32]: > 100 µM | TGI [33]: > 100 µM | TGI [34]: > 100 µM | TGI [54]: > 100 µM | TGI [36]: > 100 µM | TGI [37]: > 100 µM | TGI [38]: > 100 µM | TGI [39]: > 100 µM | TGI [55]: > 100 µM | TGI [41]: > 100 µM | TGI [42]: > 100 µM | TGI [43]: > 100 µM | TGI [44]: > 100 µM | TGI [45]: > 100 µM | TGI [56]: > 100 µM | TGI [46]: > 100 µM | TGI [47]: > 100 µM

CC(=O)c1c2c(cc3c1CC1(Cc4cc5c(cc4C1)CCC5)C3)CCC2
TGI [1]: > 100 µM | TGI [2]: > 100 µM | TGI [3]: > 100 µM | TGI [4]: > 100 µM | TGI [49]: > 100 µM | TGI [5]: > 100 µM | TGI [7]: > 100 µM | TGI [8]: > 100 µM | TGI [50]: > 100 µM | TGI [9]: > 100 µM | TGI [10]: > 100 µM | TGI [51]: > 100 µM | TGI [11]: > 100 µM | TGI [12]: > 100 µM | TGI [13]: > 100 µM | TGI [14]: > 100 µM | TGI [15]: > 100 µM | TGI [16]: > 100 µM | TGI [18]: > 100 µM | TGI [19]: > 100 µM | TGI [20]: > 100 µM | TGI [21]: > 100 µM | TGI [22]: > 100 µM | TGI [23]: > 100 µM | TGI [24]: > 100 µM | TGI [25]: > 100 µM | TGI [27]: > 100 µM | TGI [57]: > 100 µM | TGI [52]: > 100 µM | TGI [28]: > 100 µM | TGI [29]: > 100 µM | TGI [53]: > 100 µM | TGI [30]: > 100 µM | TGI [31]: > 100 µM | TGI [32]: > 100 µM | TGI [33]: > 100 µM | TGI [58]: > 100 µM | TGI [34]: > 100 µM | TGI [35]: > 100 µM | TGI [54]: > 100 µM | TGI [36]: > 100 µM | TGI [37]: > 100 µM | TGI [38]: > 100 µM | TGI [39]: > 100 µM | TGI [55]: > 100 µM | TGI [41]: > 100 µM | TGI [42]: > 100 µM | TGI [43]: > 100 µM | TGI [59]: > 100 µM | TGI [44]: > 100 µM | TGI [45]: > 100 µM | TGI [56]: > 100 µM | TGI [47]: > 100 µM

N#Cc1c(-c2ccccc2)c(C#N)c(=O)n(NS(=O)(=O)c2ccccc2)c1O
TGI [1]: > 100 µM | TGI [2]: > 100 µM | TGI [3]: > 100 µM | TGI [4]: > 100 µM | TGI [48]: > 100 µM | TGI [49]: > 100 µM | TGI [5]: > 100 µM | TGI [6]: > 100 µM | TGI [8]: > 100 µM | TGI [50]: > 100 µM | TGI [9]: > 100 µM | TGI [10]: > 100 µM | TGI [51]: > 100 µM | TGI [11]: > 100 µM | TGI [12]: > 100 µM | TGI [13]: > 100 µM | TGI [14]: > 100 µM | TGI [15]: > 100 µM | TGI [16]: > 100 µM | TGI [17]: > 100 µM | TGI [18]: > 100 µM | TGI [19]: > 100 µM | TGI [20]: > 100 µM | TGI [21]: > 100 µM | TGI [22]: > 100 µM | TGI [23]: > 100 µM | TGI [24]: > 100 µM | TGI [25]: > 100 µM | TGI [26]: > 100 µM | TGI [57]: > 100 µM | TGI [52]: > 100 µM | TGI [28]: > 100 µM | TGI [53]: > 100 µM | TGI [30]: > 100 µM | TGI [31]: > 100 µM | TGI [32]: > 100 µM | TGI [33]: > 100 µM | TGI [58]: > 100 µM | TGI [34]: > 100 µM | TGI [35]: > 100 µM | TGI [54]: > 100 µM | TGI [36]: > 100 µM | TGI [37]: > 100 µM | TGI [38]: > 100 µM | TGI [39]: > 100 µM | TGI [40]: > 100 µM | TGI [55]: > 100 µM | TGI [41]: > 100 µM | TGI [43]: > 100 µM | TGI [44]: > 100 µM | TGI [45]: > 100 µM | TGI [56]: > 100 µM | TGI [46]: > 100 µM
